Values of other authors as cited in publication PMC6024518 (International Journal of Immunopathology and Pharmacology, 2018).

Test system: SYK, JAK1, JAK2, JAK3 and other kinases
Conditions: including JAK2

SMILES: COc1cc(Nc2ncc(F)c(Nc3ccc4c(n3)NC(=O)C(C)(C)O4)n2)cc(OC)c1OC [R406]
- number of kinases inhibited more potently than SYK: 24
